For the assay, the target named is T1, Cannabinoid-1 receptor (CB1R) (Rattus norvegicus, UniProt P20272).
T1 construct: The tissue obtained from the brain of SD rats was homogenized; from tissue; host or cells: brain of SD rats (membrane pellet of the homogenate)
Kind of assay: Cannabinoid-1 receptor (CB1R) binding affinity assay ([3H]CP-55940, rat CB-1 receptor binding protocol). As to conditions: brain tissue of SD rats, [3H]CP-55940, 30° C. 60 min.

Where two headings read alike, the source gives them in different places.

Among the data in patent publication US7875647B2, “Heteroaryl-pyrazole derivatives as cannabinoid CB1 receptor antagonists” (Green Cross Corporation, priority 2006, dated 2011) are IC50 values, retold here.

A word on the IC50: it is the concentration at which inhibition is half-maximal.

T1 sequence (P20272 whole entry): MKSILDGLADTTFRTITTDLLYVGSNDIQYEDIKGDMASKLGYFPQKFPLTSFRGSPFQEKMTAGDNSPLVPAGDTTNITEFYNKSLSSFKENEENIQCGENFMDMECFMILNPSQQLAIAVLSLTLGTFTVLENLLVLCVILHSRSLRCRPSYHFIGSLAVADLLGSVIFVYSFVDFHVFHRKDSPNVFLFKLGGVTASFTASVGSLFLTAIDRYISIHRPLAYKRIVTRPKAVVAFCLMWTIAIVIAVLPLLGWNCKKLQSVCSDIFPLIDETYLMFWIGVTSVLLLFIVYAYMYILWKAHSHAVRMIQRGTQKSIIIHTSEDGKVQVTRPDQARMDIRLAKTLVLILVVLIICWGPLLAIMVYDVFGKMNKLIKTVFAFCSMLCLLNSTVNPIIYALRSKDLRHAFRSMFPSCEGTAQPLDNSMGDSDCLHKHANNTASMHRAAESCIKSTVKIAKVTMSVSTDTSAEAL

In the case of `CC(C)(C)c1nnc(-c2nn(-c3ccc(Cl)cc3Cl)c(-c3ccc(Cl)cc3)c2C(F)F)o1` [Example 224, 2-tert-butyl-5-(5-(4-chlorophenyl)-1-(2,4-dichlorophenyl)-4-(difluoromethyl)-1H-pyrazol-3-yl)-1,3,4-oxadiazole], the IC50 (read-out: IC50) was determined as 36.1 nM.
Turning to `Cc1c(-c2nc(C3CCCCC3)n(C)n2)nn(-c2ccc(Cl)cc2Cl)c1-c1ccc(Cl)cc1` [Example 624, 3-(5-(4-chlorophenyl)-1-(2,4-dichlorophenyl)-4-methyl-1H-pyrazol-3-yl)-5-cyclohexyl-1-methyl-1H-1,2,4-triazole], the IC50 (read-out: IC50) was found to be 388 nM.
Regarding `CCCOC(C)(C)c1nnc(-c2nn(-c3ccc(Cl)cc3Cl)c(-c3ccc(Cl)cc3)c2C)o1` [Example 235, 2-(5-(4-chlorophenyl)-1-(2,4-dichlorophenyl)-4-methyl-1H-pyrazol-3-yl)-5-(2-propoxypropan-2-yl)-1,3,4-oxadiazole], the IC50 (read-out: IC50) is 42 nM.
Still for that read-out and setting: with `Cc1c(-c2nnc(C3(C(F)(F)F)CCC3)s2)nn(-c2ccc(Cl)cc2Cl)c1-c1ccc(Cl)cc1` [Example 465, 2-(5-(4-chlorophenyl)-1-(2,4-dichlorophenyl)-4-methyl-1H-pyrazol-3-yl)-5-(1-(trifluoromethyl)cyclobutyl)-1,3,4-thiadiazole] the figure was 33.9 nM.
Still for that read-out and setting: with `CCN(C)Cc1c(-c2nnc(C(C)(C)C)o2)nn(-c2ccc(Cl)cc2Cl)c1-c1ccc(Cl)cc1` [Example 290, N-((3-(5-tert-butyl-1,3,4-oxadiazol-2-yl)-5-(4-chlorophenyl)-1-(2,4-dichlorophenyl)-1H-pyrazol-4-yl)methyl)-N-methylethanamine] the figure was 227 nM.
`CCCCc1cnc(-c2nn(-c3ccc(Cl)cc3Cl)c(-c3ccc(Cl)cc3)c2C)o1` [Example 639, 5-butyl-2-(5-(4-chlorophenyl)-1-(2,4-dichlorophenyl)-4-methyl-1H-pyrazol-3-yl)oxazole] returned an IC50 (IC50(nM)) of 57.2 nM.
For the molecule `CCc1c(-c2nnc(C3(c4ccc(Cl)cc4)CCC3)s2)nn(-c2ccc(Cl)cc2Cl)c1-c1ccc(Cl)cc1` [Example 483, 2-(5-(4-chlorophenyl)-1-(2,4-dichlorophenyl)-4-ethyl-1H-pyrazol-3-yl)-5-(1-(4-chlorophenyl)cyclobutyl)-1,3,4-thiadiazole], the IC50 (IC50(nM)) was determined as 2.32 nM.
Turning to `Cc1c(-c2nnnn2Cc2ccncc2)nn(-c2ccc(Cl)cc2Cl)c1-c1ccc(Cl)cc1` [Example 587, 4-((5-(5-(4-Chlorophenyl)-1-(2,4-dichlorophenyl)-4-methyl-1H-pyrazol-3-yl)-1H-tetrazol-1-yl)methyl)pyridine], the half-inhibitory concentration (IC50) (read-out: IC50) amounted to 88.2 nM.
For `CCc1c(-c2nnc(C(C)CC)s2)nn(-c2ccc(Cl)cc2Cl)c1-c1ccc(Br)cc1` (stereo not shown) [Example 399, 2-(5-(4-bromophenyl)-1-(2,4-dichlorophenyl)-4-ethyl-1H-pyrazol-3-yl)-5-sec-butyl-1,3,4-thiadiazole], for the setting “read-out: IC50”, the IC50 came out at 7.63 nM.
Still for that read-out and setting: with `Cc1c(-c2nnc(C(C)C3CCCC3)s2)nn(-c2ccc(Cl)cc2Cl)c1-c1ccc(Cl)cc1` (stereo not shown) [Example 391, 2-(5-(4-chlorophenyl)-1-(2,4-dichlorophenyl)-4-methyl-1H-pyrazol-3-yl)-5-(1-cyclopentylethyl)-1,3,4-thiadiazole] the figure was 14.3 nM.
With `CC(=O)c1c(-c2nnc(C(C)(C)C)o2)nn(-c2ccc(Cl)cc2Cl)c1-c1ccc(Br)cc1` [Example 214, 1-(5-(4-bromophenyl)-3-(5-tert-butyl-1,3,4-oxadiazol-2-yl)-1-(2,4-dichlorophenyl)-1H-pyrazol-4-yl)ethanone], for the setting “read-out: IC50”, the IC50 stood at 11.9 nM.
In turn, `CCCCOC(C)(C)c1nnc(-c2nn(-c3ccc(Cl)cc3Cl)c(-c3ccc(Cl)cc3)c2C)o1` [Example 243, 2-(2-butoxypropan-2-yl)-5-(5-(4-chlorophenyl)-1-(2,4-dichlorophenyl)-4-methyl-1H-pyrazol-3-yl)-1,3,4-oxadiazole] returned an IC50 (IC50(nM)) of 9.78 nM.
In the case of `Clc1ccc(-c2c(Br)c(-c3nnc(C4CCC4)s3)nn2-c2ccc(Cl)cc2Cl)cc1` [Example 543, 2-(4-bromo-5-(4-chlorophenyl)-1-(2,4-dichlorophenyl)-1H-pyrazol-3-yl)-5-cyclobutyl-1,3,4-thiadiazole], the IC50 (read-out: IC50) turned out to be 70.3 nM.
Same read-out and setting: with `Clc1ccc(-c2c(Cn3cncn3)c(-c3nnc(C4(c5ccc(Cl)cc5)CC4)o3)nn2-c2ccc(Cl)cc2Cl)cc1` [Example 313, 2-(4-((1H-1,2,4-triazol-1-yl)methyl)-5-(4-chlorophenyl)-1-(2,4-dichlorophenyl)-1H-pyrazol-3-yl)-5-(1-(4-chlorophenyl)cyclopropyl)-1,3,4-oxadiazole] the figure was 2.21 nM.
As for `C=C(C)c1c(-c2nnc(C(C)(C)C)o2)nn(-c2ccc(Cl)cc2Cl)c1-c1ccc(Br)cc1` [Example 220, 2-(5-(4-bromophenyl)-1-(2,4-dichlorophenyl)-4-(prop-1-en-2-yl)-1H-pyrazol-3-yl)-5-tert-butyl-1,3,4-oxadiazole], the IC50 (IC50(nM)) was determined as 8.26 nM.
`CCC(C)c1nnc(-c2nn(-c3ccc(Cl)cc3Cl)c(-c3ccc(Cl)cc3)c2Br)o1` (stereo not shown) [Example 339, 2-(4-bromo-5-(4-chlorophenyl)-1-(2,4-dichlorophenyl)-1H-pyrazol-3-yl)-5-sec-butyl-1,3,4-oxadiazole]: the half-inhibitory concentration (IC50) (read-out: IC50) came out at 21.3 nM.
Same read-out and setting: the figure for `CCc1c(-c2nnc(C3(c4ccc(C)cc4)CC3)o2)nn(-c2ccc(Cl)cc2Cl)c1-c1ccc(Br)cc1` [Example 176, 2-(5-(4-bromophenyl)-1-(2,4-dichlorophenyl)-4-ethyl-1H-pyrazol-3-yl)-5-(1-p-tolylcyclopropyl)-1,3,4-oxadiazole] is 4.47 nM; for `Cc1c(-c2nnc(C3(c4ccc(Cl)cc4)CC3)s2)nn(-c2ccccc2Cl)c1-c1ccc(Cl)cc1` [Example 433, 2-(1-(2-chlorophenyl)-5-(4-chlorophenyl)-4-methyl-1H-pyrazol-3-yl)-5-(1-(4-chlorophenyl)cyclopropyl)-1,3,4-thiadiazole] it is 7.53 nM.
On the same count and under the same terms, with `CCn1nnnc1-c1nn(-c2ccc(Cl)cc2Cl)c(-c2ccc(Cl)cc2)c1C` [Example 569, 5-(5-(4-Chlorophenyl)-1-(2,4-dichlorophenyl)-4-methyl-1H-pyrazol-3-yl)-1-ethyl-1H-tetrazole] the figure was 202 nM; with `CCc1c(-c2nnc(C3(c4ccccc4)CC3)s2)nn(-c2ccc(Cl)cc2Cl)c1-c1ccc(Br)cc1` [Example 475, 2-(5-(4-bromophenyl)-1-(2,4-dichlorophenyl)-4-ethyl-1H-pyrazol-3-yl)-5-(1-phenylcyclopropyl)-1,3,4-thiadiazole], 8.75 nM.
As to `Cc1c(-c2nnc(C3CCCCCC3)s2)nn(-c2ccc(Cl)cc2Cl)c1-c1ccc(Br)cc1` [Example 378, 2-(5-(4-Bromophenyl)-1-(2,4-dichlorophenyl)-4-methyl-1H-pyrazol-3-yl)-5-cycloheptyl-1,3,4-thiadiazole], the IC50 (read-out: IC50) came to 31 nM.
The same measure, in the same setting: with `CCc1c(-c2nnc(C3(C)CC3)o2)nn(-c2ccc(Cl)cc2Cl)c1-c1ccc(Cl)cc1` [Example 283, 2-(5-(4-chlorophenyl)-1-(2,4-dichlorophenyl)-4-ethyl-1H-pyrazol-3-yl)-5-(1-methylcyclopropyl)-1,3,4-oxadiazole] the figure was 11 nM; with `Cc1c(-c2nnnn2Cc2ccccn2)nn(-c2ccc(Cl)cc2Cl)c1-c1ccc(Cl)cc1` [Example 583, 2-((5-(5-(4-Chlorophenyl)-1-(2,4-dichlorophenyl)-4-methyl-1H-pyrazol-3-yl)-1H-tetrazol-1-yl)methyl)pyridine], 105 nM.
As for `CCOC(C)(C)c1nnc(-c2nn(-c3ccc(Cl)cc3Cl)c(-c3ccc(Cl)cc3)c2C)o1` [Example 116, 2-(5-(4-chlorophenyl)-1-(2,4-dichlorophenyl)-4-methyl-1H-pyrazol-3-yl)-5-(2-ethoxypropan-2-yl)-1,3,4-oxadiazole], for the setting “IC50(nM)”, the IC50 is 23.9 nM.
As for `CCc1c(-c2nnc(C3CCC3)s2)nn(-c2ccc(Cl)cc2Cl)c1-c1ccc(Cl)cc1` [Example 395, 2-(5-(4-chlorophenyl)-1-(2,4-dichlorophenyl)-4-ethyl-1H-pyrazol-3-yl)-5-cyclobutyl-1,3,4-thiadiazole], the IC50 (read-out: IC50) was determined as 21.8 nM.
Same read-out and setting: with `CCc1c(-c2nnc(C3(Cc4ccc(Cl)cc4)CC3)s2)nn(-c2ccc(Cl)cc2Cl)c1-c1ccc(Br)cc1` [Example 472, 2-(1-(4-chlorobenzyl)cyclopropyl)-5-(5-(4-bromophenyl)-1-(2,4-dichlorophenyl)-4-ethyl-1H-pyrazol-3-yl)-1,3,4-thiadiazole] the figure was 6.66 nM; with `COCc1c(-c2nnc(C(C)(C)C)s2)nn(-c2ccc(Cl)cc2Cl)c1-c1ccc(Br)cc1` [Example 524, 2-(5-(4-bromophenyl)-1-(2,4-dichlorophenyl)-4-(methoxymethyl)-1H-pyrazol-3-yl)-5-tert-butyl-1,3,4-thiadiazole], 8.31 nM.
`CC(C)(C)c1nnc(-c2nn(-c3ccc(Cl)cc3Cl)c(-c3ccc(Cl)cc3)c2Cl)o1` [Example 337, 2-tert-butyl-5-(4-chloro-5-(4-chlorophenyl)-1-(2,4-dichlorophenyl)-1H-pyrazol-3-yl)-1,3,4-oxadiazole]: the concentration for half-maximal inhibition (IC50) (read-out: IC50) is 105 nM.
On the same count and under the same terms, with `CC(C)(C)c1nnc(-c2nn(-c3ccc(Cl)cc3Cl)c(-c3ccc(Cl)cc3)c2CN2CCOCC2)o1` [Example 293, 4-((3-(5-tert-butyl-1,3,4-oxadiazol-2-yl)-5-(4-chlorophenyl)-1-(2,4-dichlorophenyl)-1H-pyrazol-4-yl)methyl)morpholine] the figure was 135 nM.
Consider `COc1ccc(C2(c3nnc(-c4nn(-c5ccc(Cl)cc5Cl)c(-c5ccc(Cl)cc5)c4C)o3)CC2)cc1` [Example 129, 2-(5-(4-chlorophenyl)-1-(2,4-dichlorophenyl)-4-methyl-1H-pyrazol-3-yl)-5-(1-(4-methoxyphenyl)cyclopropyl)-1,3,4-oxadiazole], for which the 50% inhibitory concentration (IC50) (IC50(nM)) is 9.46 nM.
As for `CCc1c(-c2nnc(C3CCCCC3)s2)nn(-c2ccc(Cl)cc2Cl)c1-c1ccc(Cl)cc1` [Example 390, 2-(5-(4-chlorophenyl)-1-(2,4-dichlorophenyl)-4-ethyl-1H-pyrazol-3-yl)-5-cyclohexyl-1,3,4-thiadiazole], under “read-out: IC50”, the IC50 stood at 18.2 nM.
